{"source": "paper PMC6195434", "about": "(Environmental science & technology, 2018)", "key": {"RyR1 [1]": {"target": "T1, RyR1 (Oryctolagus cuniculus, UniProt P11716)", "T1 sequence (P11716 whole entry)": "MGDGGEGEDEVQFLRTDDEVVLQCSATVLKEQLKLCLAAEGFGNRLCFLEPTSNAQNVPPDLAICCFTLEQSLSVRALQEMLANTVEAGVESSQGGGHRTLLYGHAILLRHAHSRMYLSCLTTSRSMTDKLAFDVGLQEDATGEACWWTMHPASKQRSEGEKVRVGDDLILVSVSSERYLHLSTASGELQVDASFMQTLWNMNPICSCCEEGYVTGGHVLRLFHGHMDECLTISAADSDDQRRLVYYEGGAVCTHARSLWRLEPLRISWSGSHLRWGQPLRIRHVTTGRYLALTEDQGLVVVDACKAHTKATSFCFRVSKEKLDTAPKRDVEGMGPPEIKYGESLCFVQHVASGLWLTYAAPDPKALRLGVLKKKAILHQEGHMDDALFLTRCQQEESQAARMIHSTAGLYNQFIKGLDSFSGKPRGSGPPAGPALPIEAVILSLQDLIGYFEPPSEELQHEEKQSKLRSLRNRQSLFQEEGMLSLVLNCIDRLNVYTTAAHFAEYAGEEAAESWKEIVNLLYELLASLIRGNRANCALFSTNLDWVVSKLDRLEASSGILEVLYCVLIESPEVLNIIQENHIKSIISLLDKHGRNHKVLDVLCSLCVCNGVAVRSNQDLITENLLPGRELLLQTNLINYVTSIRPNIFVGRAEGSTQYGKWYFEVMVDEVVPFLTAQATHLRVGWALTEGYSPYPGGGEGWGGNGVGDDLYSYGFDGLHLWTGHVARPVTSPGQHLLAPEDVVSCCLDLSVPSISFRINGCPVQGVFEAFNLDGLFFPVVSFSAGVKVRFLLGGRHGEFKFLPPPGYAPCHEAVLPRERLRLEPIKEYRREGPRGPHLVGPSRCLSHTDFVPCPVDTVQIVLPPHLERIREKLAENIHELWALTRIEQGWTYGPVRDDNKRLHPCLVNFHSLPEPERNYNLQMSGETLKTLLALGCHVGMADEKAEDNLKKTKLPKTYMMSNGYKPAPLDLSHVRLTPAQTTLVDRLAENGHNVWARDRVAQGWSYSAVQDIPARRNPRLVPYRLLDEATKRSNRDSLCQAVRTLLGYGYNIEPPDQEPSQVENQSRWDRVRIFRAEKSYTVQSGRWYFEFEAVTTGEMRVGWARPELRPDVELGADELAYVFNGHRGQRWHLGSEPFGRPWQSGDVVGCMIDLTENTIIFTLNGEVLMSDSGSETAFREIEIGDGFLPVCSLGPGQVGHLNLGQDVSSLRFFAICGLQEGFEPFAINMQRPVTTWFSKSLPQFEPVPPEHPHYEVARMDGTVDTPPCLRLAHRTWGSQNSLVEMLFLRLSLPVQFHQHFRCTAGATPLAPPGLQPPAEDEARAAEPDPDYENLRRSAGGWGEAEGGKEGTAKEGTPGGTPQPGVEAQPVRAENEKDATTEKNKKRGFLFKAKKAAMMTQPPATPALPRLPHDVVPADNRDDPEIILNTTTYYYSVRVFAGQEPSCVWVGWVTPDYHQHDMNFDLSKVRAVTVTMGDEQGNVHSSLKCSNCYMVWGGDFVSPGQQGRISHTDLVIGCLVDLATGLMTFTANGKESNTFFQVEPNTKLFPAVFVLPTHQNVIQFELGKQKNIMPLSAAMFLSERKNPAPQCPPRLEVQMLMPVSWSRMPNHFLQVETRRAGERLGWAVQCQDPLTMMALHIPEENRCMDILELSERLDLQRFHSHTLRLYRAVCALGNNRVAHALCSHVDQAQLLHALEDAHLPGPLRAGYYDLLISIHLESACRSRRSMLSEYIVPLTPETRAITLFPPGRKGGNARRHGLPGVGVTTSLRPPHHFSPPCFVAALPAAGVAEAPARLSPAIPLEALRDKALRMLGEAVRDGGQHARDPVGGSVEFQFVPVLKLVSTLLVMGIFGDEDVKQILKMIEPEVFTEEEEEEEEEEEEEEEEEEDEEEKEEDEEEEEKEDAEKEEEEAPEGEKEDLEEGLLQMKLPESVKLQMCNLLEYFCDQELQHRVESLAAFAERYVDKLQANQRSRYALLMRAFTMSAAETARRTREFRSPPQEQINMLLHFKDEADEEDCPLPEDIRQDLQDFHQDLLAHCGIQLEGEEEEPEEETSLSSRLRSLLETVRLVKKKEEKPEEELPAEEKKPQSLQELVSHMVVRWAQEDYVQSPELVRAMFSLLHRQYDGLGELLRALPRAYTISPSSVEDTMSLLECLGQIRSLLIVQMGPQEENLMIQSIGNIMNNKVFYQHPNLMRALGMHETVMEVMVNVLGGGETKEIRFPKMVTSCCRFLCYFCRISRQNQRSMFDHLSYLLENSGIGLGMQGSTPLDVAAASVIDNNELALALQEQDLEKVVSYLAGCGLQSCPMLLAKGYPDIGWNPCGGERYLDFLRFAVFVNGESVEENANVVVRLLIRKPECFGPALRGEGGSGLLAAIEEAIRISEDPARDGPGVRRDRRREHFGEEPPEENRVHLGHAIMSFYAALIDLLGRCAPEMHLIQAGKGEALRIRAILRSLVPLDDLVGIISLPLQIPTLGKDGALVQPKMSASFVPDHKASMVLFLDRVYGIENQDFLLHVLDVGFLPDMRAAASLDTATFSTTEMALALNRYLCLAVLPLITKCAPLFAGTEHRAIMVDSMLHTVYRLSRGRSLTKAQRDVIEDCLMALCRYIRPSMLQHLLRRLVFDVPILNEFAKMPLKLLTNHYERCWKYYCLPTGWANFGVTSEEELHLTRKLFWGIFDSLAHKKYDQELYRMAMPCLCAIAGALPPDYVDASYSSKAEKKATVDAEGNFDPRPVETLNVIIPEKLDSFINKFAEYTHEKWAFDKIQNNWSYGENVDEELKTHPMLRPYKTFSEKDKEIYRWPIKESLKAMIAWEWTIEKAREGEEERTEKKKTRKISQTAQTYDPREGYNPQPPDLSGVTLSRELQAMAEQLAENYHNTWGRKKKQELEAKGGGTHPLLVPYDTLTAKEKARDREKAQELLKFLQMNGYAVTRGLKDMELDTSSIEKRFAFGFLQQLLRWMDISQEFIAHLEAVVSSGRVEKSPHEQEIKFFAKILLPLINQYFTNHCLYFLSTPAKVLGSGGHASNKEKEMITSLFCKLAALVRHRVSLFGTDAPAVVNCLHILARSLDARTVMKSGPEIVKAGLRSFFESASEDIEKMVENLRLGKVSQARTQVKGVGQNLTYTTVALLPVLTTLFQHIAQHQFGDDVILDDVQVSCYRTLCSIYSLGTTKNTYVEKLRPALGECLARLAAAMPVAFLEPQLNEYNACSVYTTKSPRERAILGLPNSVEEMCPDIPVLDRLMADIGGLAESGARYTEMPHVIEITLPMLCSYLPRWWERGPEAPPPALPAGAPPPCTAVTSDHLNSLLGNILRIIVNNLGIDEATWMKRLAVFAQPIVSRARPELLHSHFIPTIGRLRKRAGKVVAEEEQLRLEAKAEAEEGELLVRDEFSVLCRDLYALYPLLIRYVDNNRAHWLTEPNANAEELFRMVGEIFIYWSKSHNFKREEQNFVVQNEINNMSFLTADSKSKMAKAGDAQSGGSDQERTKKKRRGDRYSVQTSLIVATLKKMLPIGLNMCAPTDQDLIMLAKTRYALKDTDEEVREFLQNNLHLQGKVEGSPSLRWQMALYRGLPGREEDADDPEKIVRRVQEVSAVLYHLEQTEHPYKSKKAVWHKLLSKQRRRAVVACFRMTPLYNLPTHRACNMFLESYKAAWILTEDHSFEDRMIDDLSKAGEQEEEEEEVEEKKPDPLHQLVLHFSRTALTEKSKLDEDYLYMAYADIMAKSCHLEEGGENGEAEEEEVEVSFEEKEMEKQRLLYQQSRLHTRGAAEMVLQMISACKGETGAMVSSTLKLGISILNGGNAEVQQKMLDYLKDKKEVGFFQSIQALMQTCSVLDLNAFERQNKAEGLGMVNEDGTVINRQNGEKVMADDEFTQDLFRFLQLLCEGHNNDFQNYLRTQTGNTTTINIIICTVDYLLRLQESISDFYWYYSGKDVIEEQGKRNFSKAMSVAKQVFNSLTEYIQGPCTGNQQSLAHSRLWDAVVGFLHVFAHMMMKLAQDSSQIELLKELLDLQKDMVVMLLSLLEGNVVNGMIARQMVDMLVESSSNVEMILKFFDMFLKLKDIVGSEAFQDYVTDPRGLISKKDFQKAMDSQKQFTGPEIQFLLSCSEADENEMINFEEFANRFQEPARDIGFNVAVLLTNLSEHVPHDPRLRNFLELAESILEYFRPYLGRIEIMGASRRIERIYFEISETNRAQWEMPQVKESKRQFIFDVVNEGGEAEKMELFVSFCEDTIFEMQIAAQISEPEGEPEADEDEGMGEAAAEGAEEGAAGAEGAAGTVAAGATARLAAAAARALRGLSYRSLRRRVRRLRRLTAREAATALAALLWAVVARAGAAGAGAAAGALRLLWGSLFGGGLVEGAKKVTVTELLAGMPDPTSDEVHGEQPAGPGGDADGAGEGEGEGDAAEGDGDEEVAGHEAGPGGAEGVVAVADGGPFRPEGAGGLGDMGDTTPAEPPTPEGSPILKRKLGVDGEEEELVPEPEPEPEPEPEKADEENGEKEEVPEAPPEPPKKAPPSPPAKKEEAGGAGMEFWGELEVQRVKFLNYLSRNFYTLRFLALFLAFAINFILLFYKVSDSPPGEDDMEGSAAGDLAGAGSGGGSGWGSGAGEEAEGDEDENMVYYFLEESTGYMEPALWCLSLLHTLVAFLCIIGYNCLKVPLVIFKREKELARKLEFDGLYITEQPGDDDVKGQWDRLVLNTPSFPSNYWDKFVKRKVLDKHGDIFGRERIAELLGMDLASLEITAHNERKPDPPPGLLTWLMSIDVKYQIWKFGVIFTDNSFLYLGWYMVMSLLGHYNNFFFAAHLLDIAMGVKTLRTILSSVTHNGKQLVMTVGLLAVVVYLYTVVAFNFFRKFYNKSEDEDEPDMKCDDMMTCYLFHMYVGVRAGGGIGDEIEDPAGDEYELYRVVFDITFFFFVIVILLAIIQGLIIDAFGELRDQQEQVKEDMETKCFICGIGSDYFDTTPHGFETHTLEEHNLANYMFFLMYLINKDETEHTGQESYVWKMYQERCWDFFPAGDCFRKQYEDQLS", "T1 sequence (P62943 2-108 partner limits assumed)": "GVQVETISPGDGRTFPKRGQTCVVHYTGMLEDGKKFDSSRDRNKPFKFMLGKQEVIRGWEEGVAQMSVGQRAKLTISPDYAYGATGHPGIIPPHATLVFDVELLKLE", "assay": "Equilibrium [3H]Ry binding analysis on RyR1-enriched microsomal membranes", "set-up": "species or system New Zealand White rabbits", "conditions": "for activity in enhancing [3H]Ry binding to RyR1: concentration-response, efficacy at 10 μM, Figure 3A, B; for RyR1 inhibitory potency compared with 6 / decrease of apparent activation potency relative to 6: Figure 3C table insert; for maximum efficacy relative to 6: higher maximum efficacy at 50 μM compared to that reached by 6 at 1 μM; for decrease of apparent activation potency relative to 6: less potent activator than 6"}, "[2]": {"system": "microsomal (JSR) membrane vesicles", "assay": "Microsomal Ca2+ fluxes and Ca2+-induced Ca2+ release", "assay_type": "biochemical, New Zealand White rabbits"}, "SERCA1a": {"target": "SERCA1a (Oryctolagus cuniculus, UniProt P04191)", "assay": "biochemical", "assay_type": "biochemical, New Zealand White rabbits", "conditions": "for inhibition at 10 µM: read-out: SERCA1a inhibition; for activity toward SERCA1a: Figure 5G"}, "RyR1 [3]": {"target": "T1, RyR1", "conditions": "previous data; cited from earlier work"}, "[4]": {"system": "Platynereis dumerilii embryos", "conditions": "cited from earlier work"}, "[5]": {"system": "CHO (Chinese hamster ovary) cells", "conditions": "cited from earlier work"}, "[6]": {"conditions": "at 2 μM, baseline = binding in presence of Veh alone, p < 0.05 vs Veh"}, "[7]": {"conditions": "5 or 10 μM, initial 60 s release rate, vesicles loaded with 4 × 45 nmole Ca2+"}, "[8]": {"conditions": "expanded concentration range, Figure 3C"}}, "note": "Where two headings read alike, the source gives them in different places."}
{"compound": "Brc1[nH]c2ccccc2c1Br", "note": "[Compound 14, 2,3-dibromoindole]", "values": [{"measurement": "enhancement of [3H]Ry binding to RyR1 compared to baseline", "setting": "RyR1 [1]; [6]", "value": "≥ 1.5", "unit": "fold"}, {"measurement": "net release of accumulated Ca2+ from loaded microsomal vesicles", "setting": "[2]; [7]", "value": "triggered dose-dependent Ca^2+ efflux"}, {"measurement": "inhibition at 10 µM", "setting": "SERCA1a", "value": 60, "unit": "%"}]}
{"compound": "Brc1ccc(Oc2cc(Br)ccc2Br)c(Br)c1", "note": "[BDE-49]", "values": [{"measurement": "mode of action toward RyR1", "setting": "RyR1 [3]", "value": "monotonic"}]}
{"compound": "c1cc[nH]c1", "note": "[Compound 24, pyrrole]", "values": [{"measurement": "activity in enhancing [3H]Ry binding to RyR1", "setting": "RyR1 [1]", "value": "inactive"}, {"measurement": "activity toward SERCA1a", "setting": "SERCA1a", "value": "inactive"}]}
{"compound": "Clc1[nH]c2ccccc2c1Cl", "note": "[Compound 13, 2,3-dichloroindole]", "values": [{"measurement": "enhancement of [3H]Ry binding to RyR1 compared to baseline", "setting": "RyR1 [1]; [6]", "value": "≥ 1.5", "unit": "fold"}]}
{"compound": "Oc1cc(Br)c(Oc2ccc(Br)cc2Br)cc1Br", "note": "[Compound 4-OH-BDE-49, 4′hydroxy-2,2′,4,5′-tetrabromodiphenyl ether]", "values": [{"measurement": "mode of action toward RyR1", "setting": "RyR1 [3]", "value": "biphasic"}]}
{"compound": "Brc1[nH]c(Br)c(Br)c1Br", "note": "[Compound 31, tetrabromopyrrole]", "values": [{"measurement": "developmental toxicity", "setting": "[4]", "value": "potent developmental toxicity"}, {"measurement": "RyR1 inhibitory potency compared with 6", "setting": "RyR1 [1]", "value": "weaker inhibitors than 6"}, {"measurement": "enhancement of [3H]Ry binding to RyR1 compared to baseline", "setting": "RyR1 [1]; [6]", "value": "≥ 1.5", "unit": "fold"}, {"measurement": "mode of modulation of RyR1", "setting": "RyR1 [1]; [8]", "value": "biphasic"}, {"measurement": "maximum efficacy relative to 6", "setting": "RyR1 [1]", "value": 2.5, "unit": "fold"}, {"measurement": "decrease of apparent activation potency relative to 6", "setting": "RyR1 [1]", "value": 68, "unit": "fold"}, {"measurement": "net release of accumulated Ca2+ from loaded microsomal vesicles", "setting": "[2]; [7]", "value": "triggered dose-dependent Ca^2+ efflux"}, {"measurement": "SERCA1a inhibition", "setting": "SERCA1a; at 10 μM", "value": 80, "unit": "%"}]}
{"compound": "Hexabromobipyrroles [Compound 25]", "values": [{"measurement": "enhancement of [3H]Ry binding to RyR1 compared to baseline", "setting": "RyR1 [1]; [6]", "value": "≥ 1.5", "unit": "fold"}, {"measurement": "net release of accumulated Ca2+ from loaded microsomal vesicles", "setting": "[2]; [7]", "value": "triggered dose-dependent Ca^2+ efflux"}, {"measurement": "loading capacity of calcium into microsomal vesicles", "setting": "[2]; concentration-dependent, Figure SI3", "value": "diminished the loading capacity"}, {"measurement": "SERCA1a inhibition", "setting": "SERCA1a; at 2.0 μM", "value": "> 80", "unit": "%"}, {"measurement": "SERCA1a inhibition", "setting": "SERCA1a; at 10 μM", "value": "~ 90%"}]}
{"compound": "CN1C(=O)C(Br)=C(Br)C1=O", "note": "[Compound 28, 2,3-dibromo-N-methylmaleimide]", "values": [{"measurement": "enhancement of [3H]Ry binding to RyR1 compared to baseline", "setting": "RyR1 [1]; [6]", "value": "≥ 1.5", "unit": "fold"}, {"measurement": "mode of modulation of RyR1", "setting": "RyR1 [1]; [8]", "value": "biphasic"}]}
{"compound": "Brc1cc(Br)c(Br)[nH]1", "note": "[Compound 34, 2,3,5-tribromopyrrole]", "values": [{"measurement": "RyR1 inhibitory potency compared with 6", "setting": "RyR1 [1]", "value": "weaker inhibitors than 6"}, {"measurement": "enhancement of [3H]Ry binding to RyR1 compared to baseline", "setting": "RyR1 [1]; [6]", "value": "≥ 1.5", "unit": "fold"}, {"measurement": "mode of modulation of RyR1", "setting": "RyR1 [1]; [8]", "value": "biphasic"}, {"measurement": "maximum efficacy relative to 6", "setting": "RyR1 [1]", "value": 2.5, "unit": "fold"}, {"measurement": "decrease of apparent activation potency relative to 6", "setting": "RyR1 [1]", "value": 107, "unit": "fold"}, {"measurement": "cytotoxicity", "setting": "[5]", "value": "cytotoxic"}, {"measurement": "genotoxicity", "setting": "[5]", "value": "genotoxic"}, {"measurement": "net release of accumulated Ca2+ from loaded microsomal vesicles", "setting": "[2]; [7]", "value": "triggered dose-dependent Ca^2+ efflux"}, {"measurement": "inhibition at 10 µM", "setting": "SERCA1a", "value": 48, "unit": "%"}]}
{"compound": "Brc1c[nH]c(Br)c1Br", "note": "[Compound 26, 2,3,4-tribromopyrrole]", "values": [{"measurement": "activity in enhancing [3H]Ry binding to RyR1", "setting": "RyR1 [1]", "value": "inactive"}, {"measurement": "net release of accumulated Ca2+ from loaded microsomal vesicles", "setting": "[2]; [7]", "value": "failed to trigger net release"}, {"measurement": "activity toward SERCA1a", "setting": "SERCA1a", "value": "inactive"}]}
{"compound": "CCOC(=O)c1cc(Br)c[nH]1", "note": "[Compound 27, ethyl-4-bromopyrrole-2-carboxylate]", "values": [{"measurement": "activity in enhancing [3H]Ry binding to RyR1", "setting": "RyR1 [1]", "value": "inactive"}, {"measurement": "net release of accumulated Ca2+ from loaded microsomal vesicles", "setting": "[2]; [7]", "value": "failed to trigger net release"}, {"measurement": "activity toward SERCA1a", "setting": "SERCA1a", "value": "inactive"}]}
{"compound": "Oc1c(Br)cc(Oc2c(Br)cc(Br)cc2Br)cc1Br", "note": "[Compound 18, 4′-hydroxy-2,3′,4,5′,6-pentabromodiphenyl ether]", "values": [{"measurement": "enhancement of [3H]Ry binding to RyR1 compared to baseline", "setting": "RyR1 [1]; [6]", "value": "≥ 1.5", "unit": "fold"}, {"measurement": "net release of accumulated Ca2+ from loaded microsomal vesicles", "setting": "[2]; [7]", "value": "triggered dose-dependent Ca^2+ efflux"}, {"measurement": "SERCA1a inhibition", "setting": "SERCA1a; at 2.0 μM", "value": "> 80", "unit": "%"}, {"measurement": "SERCA1a inhibition", "setting": "SERCA1a; at 10 μM", "value": "~ 90%"}]}
{"compound": "O=C1NC(=O)C(Br)=C1Br", "note": "[Compound 6, 2,3-dibromomaleimide]", "values": [{"measurement": "EC50", "setting": "RyR1 [1]", "value": 360, "unit": "nM"}, {"measurement": "IC50", "setting": "RyR1 [1]", "value": 3000, "unit": "nM"}, {"measurement": "concentration at which RyR1 inhibitory phase was detected", "setting": "RyR1 [1]", "value": "< 5", "unit": "µM"}, {"measurement": "concentration that maximally activated RyR1", "setting": "RyR1 [1]", "value": "0.6−1.0 μM"}, {"measurement": "enhancement of [3H]Ry binding to RyR1 compared to baseline", "setting": "RyR1 [1]", "value": "≥ 1.5", "unit": "fold"}, {"measurement": "mode of modulation of RyR1", "setting": "RyR1 [1]", "value": "biphasic"}, {"measurement": "Ca2+-induced Ca2+ release rate vs control", "setting": "[2]", "value": "significantly higher rates of release than control"}, {"measurement": "net release of accumulated Ca2+ from loaded microsomal vesicles", "setting": "[2]", "value": "failed to trigger net Ca^2+ efflux"}, {"measurement": "sensitizing influence on calcium-induced calcium release", "setting": "[2]", "value": "did not reach statistical significance"}, {"measurement": "SERCA1a inhibition", "setting": "SERCA1a", "value": "without inhibition of SERCA1a"}, {"measurement": "concentration at which SERCA1a inhibition was detected (only the highest tested)", "setting": "SERCA1a", "value": 10, "unit": "µM"}, {"measurement": "inhibition at 10 µM", "setting": "SERCA1a", "value": 50, "unit": "%"}]}
